According to the NIST ThermoML archive (doi:10.1021/je800110r):

Settings: 323.15 K, Liquid, Vibrating tube method

CCCCCCCCCC [decane]
Settings | mass density [kg/m3]
19981 kPa | 723.9
20414 kPa | 724.1
20537 kPa | 724.2
20652 kPa | 724.2
20695 kPa | 724.1
20721 kPa | 724.3
20740 kPa | 724.4
20766 kPa | 724.4
20799 kPa | 724.3
20826 kPa | 724.5
20842 kPa | 724.5
20862 kPa | 724.5
20893 kPa | 724.5
20916 kPa | 724.4
20949 kPa | 724.5
20970 kPa | 724.6
20990 kPa | 724.5
21020 kPa | 724.4
21044 kPa | 724.5
21064 kPa | 724.7
21088 kPa | 724.5
21254 kPa | 724.7
21289 kPa | 724.7
21309 kPa | 724.8
21334 kPa | 724.7
21558 kPa | 724.9
21597 kPa | 725
21615 kPa | 724.9
21681 kPa | 725
21707 kPa | 725.1
21732 kPa | 725.1
21754 kPa | 725.1
21790 kPa | 725.1
21819 kPa | 725.1
21845 kPa | 725.1
21867 kPa | 725.2
21896 kPa | 725.2
21926 kPa | 725.2
21955 kPa | 725.2
21989 kPa | 725.3
22012 kPa | 725.3
22035 kPa | 725.2
22072 kPa | 725.4
22094 kPa | 725.2
22131 kPa | 725.4
22154 kPa | 725.4
22183 kPa | 725.4
22207 kPa | 725.4
22236 kPa | 725.3
22271 kPa | 725.5
22302 kPa | 725.5
22328 kPa | 725.5
22359 kPa | 725.5
22383 kPa | 725.5
22410 kPa | 725.6
22448 kPa | 725.6
22471 kPa | 725.6
22498 kPa | 725.7
22533 kPa | 725.6
22563 kPa | 725.7
22583 kPa | 725.8
22622 kPa | 725.6
22654 kPa | 725.8
22682 kPa | 725.7
23638 kPa | 726.6
23679 kPa | 726.7
24027 kPa | 726.8
24056 kPa | 726.8
24083 kPa | 726.8
24123 kPa | 726.9
24146 kPa | 726.8
24177 kPa | 726.9
24209 kPa | 727
24240 kPa | 726.9
24281 kPa | 727
24323 kPa | 727
24359 kPa | 727
24392 kPa | 727
24425 kPa | 727
24463 kPa | 727
24511 kPa | 727.1
24544 kPa | 727.1
24568 kPa | 727.3
24605 kPa | 727.2
24671 kPa | 727.3
25856 kPa | 728
25903 kPa | 728.1
25945 kPa | 728.2
25978 kPa | 728.2
26015 kPa | 728.1
26052 kPa | 728.2
26084 kPa | 728.3
26113 kPa | 728.2
26150 kPa | 728.3
26239 kPa | 728.3
26279 kPa | 728.4
26309 kPa | 728.5
26382 kPa | 728.5
26425 kPa | 728.4
26468 kPa | 728.7
26506 kPa | 728.5
26540 kPa | 728.6
26579 kPa | 728.6
26618 kPa | 728.6
26657 kPa | 728.8
26692 kPa | 728.7
27084 kPa | 728.9
27120 kPa | 729
27152 kPa | 729.1
27187 kPa | 729.1
27223 kPa | 729.1
27259 kPa | 729.1
27290 kPa | 729.1
27331 kPa | 729.1
27727 kPa | 729.5
27833 kPa | 729.5
28265 kPa | 729.7
28432 kPa | 729.9
29106 kPa | 730.4
29187 kPa | 730.5
29218 kPa | 730.5
29260 kPa | 730.5
29336 kPa | 730.6
29452 kPa | 730.6
29479 kPa | 730.7
29510 kPa | 730.7
29547 kPa | 730.7
29594 kPa | 730.7
31137 kPa | 731.8
31166 kPa | 731.8
31206 kPa | 731.8
32493 kPa | 732.8
32550 kPa | 732.8
32582 kPa | 732.7
32606 kPa | 732.8
32634 kPa | 732.8
32659 kPa | 732.7
